Results: patent US8912181B2 (Taiho Pharmaceutical Co., Ltd., priority 2011, dated 2014)

Columns and labels:
[1] = molecular target: human HSP90 alpha protein (N-terminal, amino acids 2 to 236) (Homo sapiens (Human), UniProt P07900); test: Determination of HSP90-binding activity (AlphaScreen competitive assay with biotinylated geldanamycin); conditions: inhibition of binding of biotinylated geldanamycin to purified HSP90 N-terminal protein, read-out: HSP-binding activity IC50
Procedure: First, a purified HSP90 solution was prepared as follows: a human HSP90 alpha gene (NCBI Reference Sequence accession no. NM-005348) region corresponding to amino acids 2 to 236 of human HSP90 alpha protein (NCBI Reference Sequence accession no. NP-005339; full length: 732 amino acids) was inserted to pET-19b (Novagen; Merck KGaA) to construct a plasmid pET-HS[…] for expression of the HSP90 N-terminal protein having a His-tag at the N-terminus. E. coli (BL21(DE3), Stratagene Corp.) was transformed with pET-HS[…] and then cultured at 37° C. for 4 hours in the presence of 0.5 mM isopropyl-beta-D-thiogalactopyranoside (Sigma-Aldrich Corp.). The collected E. coli was suspended in a lysis buffer (50 mM Tris-HCl (pH 7.5), 200 mM NaCl) and sonicated. The sonicated cell solution was centrifuged (40,000×g, 20 minutes), and the supernatant was used as a crude extract. This crude extract was fractionated using Ni Sepharose High Performance (GE Healthcare Japan Corp.) chromatography and HiLoad 26/60 Superdex 75 pg (GE Healthcare Japan Corp.). Then, a fraction of HSP90 protein concentrates was prepared in a solution containing 50 mM Tris-HCl (pH 7.5) and 20% glycerol as a purified HSP90 solution. The purified HSP90 solution was divided and stored at -80° C. until use. HSP90-binding activity was determined by an AlphaScreen competitive assay system. […] After reaction at room temperature for 2 hours, biotinylated geldanamycin was added thereto at a concentration of 40 nM/well and further reacted for 1 hour. Detection mix (20 mM HEPES-KOH (pH 7.5), 0.5% BSA, 0.04 mg/mL Nickel Chelate Acceptor beads, 0.04 mg/mL Streptavidin-coated Donor beads) (#6760619C, PerkinElmer, Inc.) was added to each well in an amount equal to the amount of the reaction solution and reacted at room temperature for 1 hour in the dark. Then, fluorescence intensity was measured using Multilabel Plate Reader EnVision (PerkinElmer, Inc.). Percent inhibition (%) of the binding of biotinylated geldanamycin by each compound of the present invention was determined according to the formula shown below with the fluorescence signal of no test substance addition group as a control. […] Percent inhibition (%)=(C-T)/C×100, wherein T: Signal of well with test substance addition C: Signal of well without test substance addition.

[2] = tested on: SK-BR-3 cells; test: Determination of cell growth inhibition (crystal violet staining method); type: cell-based; conditions: Homo sapiens; breast cancer cells SK-BR-3, 72 hours culture with test substance
Procedure: Cell growth was assayed by a crystal violet staining method. SK-BR-3 cells (HTB-30) purchased from American Type Culture Collection were inoculated at a concentration of 5,000 cells/well to a 96-well plate (#353075, BD Biosciences). After culture at 37° C. for 24 hours in a 5% CO2 incubator, each test substance was added thereto, and the cells were further cultured for 72 hours. A 25% glutaraldehyde solution (#17025-25, Nacalai Tesque, Inc.) was added thereto at a concentration of 20 μL/well per 200 μL of the medium, and the plate was incubated at room temperature for 20 minutes to fix the cells. The plate was washed with water and dried. Then, a solution containing 0.05% crystal violet (#038-17792, Wako Pure Chemical Industries, Ltd.) and 20% methanol was added thereto at a concentration of 100 μL/well, and the plate was incubated at room temperature for 20 minutes to stain the cells. The plate was washed with water and dried. A mixed solution of 0.05 M NaH2PO4 and ethanol (mixed in equal amounts) was added thereto at a concentration of 100 μL/well. Absorbance was measured at 540 nm using a microplate reader (MTP-450, Corona Electric Co., Ltd.) and used as an index for the number of cells per well. Percent inhibition (%) of cell growth by each compound of the present invention was determined according to the formula shown below with the absorbance of no drug addition group as a control. […] Percent inhibition (%)=(C−T)/C×100, wherein T: Absorbance of well with test substance addition C: Absorbance of well without test substance addition.

| SMILES | IC50 [1] [nM] | IC50 [2] [nM] |
| --- | --- | --- |
| NC(=O)c1ccc(-c2cccc3c(-c4cnc5ccccc5c4)nccc23)cc1NC1CCC(O)CC1 (stereo not shown) [Comp. Ex. 1, 2-(4-Hydroxycyclohexylamino)-4-(1-(quinolin-3-yl)isoquinolin-5-yl)benzamide, reference compound] | > 100000 | 8420 |
| NC(=O)c1ccc(-c2nccc3c(-c4cncc(N)c4)cccc23)cc1NC1CCC(O)CC1 (stereo not shown) [Example 2, 4-(5-(5-Aminopyridin-3-yl)isoquinolin-1-yl)-2-(4-hydroxycyclohexylamino)benzamide] |  | 150 |
| Cc1cc2c(-c3cnc4ccccc4c3)cccc2c(-c2ccc(C(N)=O)c(NC3CCC(O)CC3)c2)n1 (stereo not shown) [Example 7, 2-(4-Hydroxycyclohexylamino)-4-(3-methyl-5-(quinolin-3-yl)isoquinolin-1-yl)benzamide] | 150 | 10 |
| Cc1ccc2cc(-c3cccc4c(-c5ccc(C(N)=O)c(NC6CCC(O)CC6)c5)nccc34)cnc2c1 (stereo not shown) [Example 11, 2-(4-Hydroxycyclohexylamino)-4-(5-(7-methylquinolin-3-yl)isoquinolin-1-yl)benzamide] | 480 | 110 |
| NC(=O)c1ccc(-c2nccc3c(-c4cnc5nccnc5c4)cccc23)cc1NC1CCC(O)CC1 (stereo not shown) [Example 13, 2-(4-Hydroxycyclohexylamino)-4-(5-(pyrido[2,3-b]pyrazin-7-yl)isoquinolin-1-yl)benzamide] | 450 | 580 |
| NC(=O)c1ccc(-c2nccc3c(-c4cnc5[nH]ccc5c4)cccc23)cc1NC1CCC(O)CC1 (stereo not shown) [Example 14, 4-(5-(1H-Pyrrolo[2,3-b]pyridin-5-yl)isoquinolin-1-yl)-2-(4-hydroxycyclohexylamino)benzamide] | 1500 | 340 |
| NC(=O)c1ccc(-c2nccc3c(-c4cccnc4)cccc23)cc1NC1CCC(O)CC1 (stereo not shown) [Example 15, 2-(4-Hydroxycyclohexylamino)-4-(5-(pyridin-3-yl)isoquinolin-1-yl)benzamide] | 140 | 210 |
| NCC(=O)OC1CCC(Nc2cc(-c3nccc4c(-c5cnc6ccccc6c5)cccc34)ccc2C(N)=O)CC1 (stereo not shown) [Example 33, 4-(2-Carbamoyl-5-(5-(quinolin-3-yl)isoquinolin-1-yl)phenylamino)cyclohexyl-2-aminoacetate] |  | 80 |
| CC(C)Cn1cc(-c2cn(-c3cccc4c(-c5ccc(C(N)=O)c(NC6CCC(O)CC6)c5)nccc34)cn2)cn1 (stereo not shown) [Example 52, 2-(4-Hydroxycyclohexylamino)-4-(5-(4-(1-isobutyl-1H-pyrazol-4-yl)-1H-imidazol-1-yl)isoquinolin-1-yl)benzamide] |  | 110 |
| Cn1cc(-c2cn(-c3cccc4c(-c5ccc(C(N)=O)c(NC6CCCCCC6)c5)nccc34)cn2)cn1 [Example 63, 2-(Cycloheptylamino)-4-(5-(4-(1-methyl-1H-pyrazol-4-yl)-1H-imidazol-1-yl)isoquinolin-1-yl)benzamide] |  | 30 |
| Cn1cc(-c2cn(-c3cccc4c(-c5ccc(C(N)=O)c(N)c5)cc(C5CC5)nc34)cn2)cn1 [Example 106, 2-Amino-4-(2-cyclopropyl-8-(4-(1-methyl-1H-pyrazol-4-yl)-1H-imidazol-1-yl)quinolin-4-yl)benzamide] | 100 |  |
| CC(C)(C)Nc1cc(-c2cc(C(F)(F)F)nc3c(-n4cnc(-c5ccccc5)c4)cccc23)ccc1C(N)=O [Example 107, 2-(Tert-butylamino)-4-(8-(4-phenyl-1H-imidazol-1-yl)-2-(trifluoromethyl)quinolin-4-yl)benzamide] |  | 240 |

More lines, now with the values ahead:

| IC50 [1] [nM] | IC50 [2] [nM] | SMILES |
| --- | --- | --- |
| > 100000 | > 10000 | NC(=O)c1ccc(-c2cccc3c(-c4cnc5ccccc5c4)ncnc23)cc1NC1CCC(O)CC1 (stereo not shown) [Comp. Ex. 2, 2-(4-Hydroxycyclohexylamino)-4-(4-(quinolin-3-yl)quinazolin-8-yl)benzamide, reference compound] |
| > 100000 | 7630 | CCNc1cc(-c2cccc3c(-n4cnc(-c5cnn(C)c5)c4)nccc23)ccc1C(N)=O [Comp. Ex. 3, 2-(Ethylamino)-4-(1-(4-(1-methyl-1H-pyrazol-4-yl)-1H-imidazol-1-yl)isoquinolin-5-yl)benzamide, reference compound] |
|  | 120 | CCNc1cc(-c2nccc3c(-n4cnc(-c5cnn(C)c5)c4)cccc23)ccc1C(N)=O [Example 1, 2-(Ethylamino)-4-(5-(4-(1-methyl-1H-pyrazol-4-yl)-1H-imidazol-1-yl)isoquinolin-1-yl)benzamide] |
| 190 | 10 | CCNc1cc(-c2cc(C(F)(F)F)nc3c(-n4cnc(-c5cnn(C)c5)c4)cccc23)ccc1C(N)=O [Example 3, 2-(Ethylamino)-4-(8-(4-(1-methyl-1H-pyrazol-4-yl)-1H-imidazol-1-yl)-2-(trifluoromethyl)quinolin-4-yl)benzamide] |
| 340 | 280 | Cn1cc(-c2cn(-c3cccc4c(-c5ccc(C(N)=O)c(N)c5)nc(C(F)(F)F)nc34)cn2)cn1 [Example 4, 2-Amino-4-(8-(4-(1-methyl-1H-pyrazol-4-yl)-1H-imidazol-1-yl)-2-(trifluoromethyl)quinazolin-4-yl)benzamide] |
| 1440 | 90 | CC(C)(C)Nc1cc(-c2cc(C(F)(F)F)nc3c(-c4cnc5ccccc5c4)cccc23)ccc1C(N)=O [Example 5, 2-(Tert-butylamino)-4-(2′-(trifluoromethyl)-3,8′-biquinolin-4′-yl)benzamide] |
| 170 | 30 | NC(=O)c1ccc(-c2nccc3c(-c4cnc5ccccc5c4)cccc23)cc1NC1CCC(O)CC1 (stereo not shown) [Example 6, 2-(4-Hydroxycyclohexylamino)-4-(5-(quinolin-3-yl)isoquinolin-1-yl)benzamide] |
| 100 | 20 | Cc1cc2c(-c3cnc4ccccc4c3)cccc2c(-c2ccc(C(N)=O)c(NC3CCC(O)CC3)c2)[n+]1[O-] (stereo not shown) [Example 8, 1-(4-Carbamoyl-3-(4-hydroxycyclohexylamino)phenyl)-3-methyl-5-(quinolin-3-yl)isoquinoline-2-oxide] |
| 270 | 50 | Cc1ccc2ncc(-c3cccc4c(-c5ccc(C(N)=O)c(NC6CCC(O)CC6)c5)nccc34)cc2c1 (stereo not shown) [Example 9, 2-(4-Hydroxycyclohexylamino)-4-(5-(6-methylquinolin-3-yl)isoquinolin-1-yl)benzamide] |
| 70 | 170 | NC(=O)c1ccc(-c2nccc3c(-c4cnc5nc[nH]c5c4)cccc23)cc1NC1CCC(O)CC1 (stereo not shown) [Example 12] |
|  | 480 | NC(=O)c1ccc(-c2nccc3c(-n4cnc(Br)c4)cccc23)cc1NC1CCC(O)CC1 (stereo not shown) [Example 54, 4-(5-(4-Bromo-1H-imidazol-1-yl)isoquinolin-1-yl)-2-(4-hydroxycyclohexylamino)benzamide] |
|  | 10 | Cn1cc(-c2cn(-c3cccc4c(-c5ccc(C(N)=O)c(NCC6CC6)c5)cc(C(F)(F)F)nc34)cn2)cn1 [Example 65, 2-(Cyclopropylmethylamino)-4-(8-(4-(1-methyl-1H-pyrazol-4-yl)-1H-imidazol-1-yl)-2-(trifluoromethyl)quinolin-4-yl)benzamide] |
|  | 10 | CCNc1cc(-c2cc(C(F)(F)F)nc3c(-n4cnc(-c5cnn(C(F)F)c5)c4)cccc23)ccc1C(N)=O [Example 91, 4-(8-(4-(1-Difluoromethyl-1H-pyrazol-4-yl)-1H-imidazol-1-yl)-2-(trifluoromethyl)quinolin-4-yl)-2-(ethylamino)benzamide] |
